Structures are written as SMILES.

In this assay the test system is Bacillus cereus, Staphylococcus aureus, Pseudomonas aeruginosa, Escherichia coli, Aspergillus flavus, Chrysosporium keratinophilum. The assay is described as follows: Agar plate disc-diffusion antimicrobial activity. To be noted: disc wetted with 10 μL of 10 mg/mL in DMSO; 37° C., 48 h (72 h for fungi); gram positive and gram-negative bacteria and fungi; result in words only. The format is cell-based. As for the experimental part:
The agar plate disc-diffusion method was applied. Sterilized filter papers (6 mm in diameter) were wetted with 10 μL of a solution of 2-(benzo[d]oxazol-2-yl)-N′-(2-(5-phenyl-1,3,4-oxadiazol-2-ylthio)acetoxy)acetimidamide (3) to be tested, containing 10 mg/mL in DMSO, and the discs were allowed to air dry. The discs were then placed onto the surface of agar plates (nutrient agar for bacteria and Sabouraud's dextrose agar for fungi) seeded with the test organism. Each plate contained 15 mL of the agar medium, previously seeded with 0.2 mL of the broth culture of each organism pregrown for 18 hours. The plates were incubated at 37° C. for 48 h, and 72 h for fungi. The inhibition zones were measured in mm. Discs impregnated with DMSO were used as a control, and its inhibition zone was subtracted from the tested compound actual inhibition zone. […] The antibacterial activity was screened against gram positive bacteria namely Bacillus cereus and Staphylococcus aureus and gram-negative bacterial strains namely Pseudomonas aeruginosa and Escherichia coli, while the antifungal activity was screened against Aspergillus flavus and Chrysosporium keratinophilum.

For `N/C(Cc1nc2ccccc2o1)=N\OC(=O)CSc1nnc(-c2ccccc2)o1` [compound 3, 2-(benzo[d]oxazol-2-yl)-N′-(2-(5-phenyl-1,3,4-oxadiazol-2-ylthio)acetoxy)acetimidamide], the “antimicrobial activities (inhibition zones)” value is on record as “high antimicrobial activities”.

(Values after patent US11958843B1, “2-(benzo[d]oxazol-2-yl)-n′-(2-(5-phenyl-1,3,4-oxadiazol-2-ylthio)acetoxy)acetimidamide as an antimicrobial compound” (priority 2023, dated 2024).)
